Values after ≈ are worked out from the molar mass of the structure shown.
Tested on: L. donovani (strain MHOM/ET/67/L82) amastigotes
Experiment: In vitro assay for Leishmania donovani axenic amastigotes (resazurin)
Assay type: cell-based
Settings: axenic amastigotes, 72 h, means of two determinations ± deviation, read-out: IC50 Leishmania donovani
Method: Amastigotes of L. donovani (strain MHOM/ET/67/L82) were grown in axenic culture at 37 °C in SM medium at pH 5.4 supplemented with 10% heat-inactivated FBS under an atmosphere of 5% CO2. Culture medium (100 μL) with 10^5 amastigotes from axenic culture with or without a serial drug dilution was seeded in 96 well microtiter plates. Serial drug was prepared covering a range of dilutions from 90 to 0.123 μg/mL. After 72 h of incubation, the plates were inspected under an inverted microscope to assure growth of the controls and sterile conditions. Subsequently, 10 μL resazurin solution (12.5 mg resazurin dissolved in 100 mL double-distilled water) was added to each well and the plates were incubated for another 2 h. The plates were then read with a Spectramax Gemini XS microplate fluorometer (Molecular Devices Cooperation, Sunnyvale, CA, USA) using an excitation wavelength of 536 nm and an emission wavelength of 588 nm. Data were analyzed using the software Softmax Pro (Molecular Devices Cooperation, Sunnyvale, CA, USA). A decrease of fluorescence (=inhibition) was expressed as percentage of the fluorescence of control cultures and plotted against the drug concentrations. From the sigmoidal inhibition curves, the IC50 values were calculated. Miltefosine was used as a reference drug.

Row | Structure (SMILES) | IC50 [µg/mL]
1 | Cc1ccc(C(C)C)cc1 [p-Cymene] | > 90
2 | CC1=CC(=O)C(C(C)C)=CC1=O [Thymoquinone] | 1.7 ± 0.16 (≈ 10.4 µM)
3 | CC1=CCC(O)(C(C)C)CC1 (stereo not shown) [Terpinen-4-ol] | 68.7 ± 14.2 (≈ 445 µM)
4 | CC1=CCC(C(C)C)=CC1 [γ-Terpinene] | > 90

Tested on: Leishmania
Experiment: not given
Design: method as in PMID 15793164
Settings: oral administration in mice for 30 days; cited from earlier work

Row | Structure (SMILES) | reduction of the parasite burden [%]
5 | CNC[C@H](O)[C@@H](O)[C@H](O)[C@H](O)CO.[O]=[Sb](=[O])[OH] [glucantime] | 100

Tested on: T. cruzi Tulahuen strain C2C4
Experiment: In vitro assay for Trypanosoma cruzi in L-6 cells (β-galactosidase/CPRG)
Assay type: cell-based
Settings: Trypanosoma cruzi, L6; Tulahuen C2C4 in L-6 cells, 96 h; highest concentration tested 90 μg/mL; means of two determinations ± deviation
Method: Rat skeletal myoblasts (L-6 cells) were seeded in 96 well microtiter plates (2000 cells/well) in 100 μL RPMI 1640 medium with 10% FBS and 2 mM L-glutamine for 24 h. After that, the medium was removed and replaced by 100 μL per well containing 5000 trypomastigote forms of T. cruzi Tulahuen strain C2C4, containing the β-galactosidase (Lac Z) gene. The medium was removed from the wells after 48 h, and replaced with 100 μL fresh medium with or without a serial drug dilution of seven 3-fold dilution steps covering a range from 90 to 0.123 μg/mL. After 96 h of incubation, the plates were inspected under an inverted microscope to assure growth of the controls and sterility, after which the substrate CPRG/Nonidet ([…]) was added to all wells. A color reaction developed within 2–6 h and could be read photometrically at 540 nm. Data were transferred into the graphic program Softmax Pro (Molecular Devices Cooperation, Sunnyvale, CA, USA) and the IC50 values were calculated from the sigmoidal dose response curves. Benznidazole was the reference drug.

Row | Structure (SMILES) | IC50 [µg/mL]
6 | O=C(Cn1ccnc1[N+](=O)[O-])NCc1ccccc1 [benznidazole, reference compound] | 0.44 (≈ 1.69 µM)
7 | Cc1ccc(C(C)C)cc1 [p-Cymene] | > 90
8 | CC1=CC(=O)C(C(C)C)=CC1=O [Thymoquinone] | 18.2 ± 4.3 (≈ 111 µM)
9 | CC1=CCC(O)(C(C)C)CC1 (stereo not shown) [Terpinen-4-ol] | 46.8 ± 7.4 (≈ 303 µM)
10 | CC1=CCC(C(C)C)=CC1 [γ-Terpinene] | > 90

Tested on: T. brucei brucei STIB795
Experiment: In vivo trypanocidal activity, T. brucei brucei STIB795 mouse model
Design: species or system Trypanosoma brucei brucei
Settings: 5.0 mg/kg × 4 days i.p., NMRI mice
Method: In vivo efficacy studies in mice were conducted at the Swiss Tropical and Public Health Institute (Basel) (License number 2813) according to the rules and regulations for the protection of animal rights (“Tierschutzverordnung”) of the Swiss “Bundesamt für Veterinärwesen”. They were approved by the veterinary office of Canton Basel-Stadt, Switzerland. Groups of four female NMRI mice weighing 20 to 25 g were infected i.p. on Day 0 (d0) with 10^5 bloodstream forms of T. brucei brucei STIB 795, which is a derivative of strain 427. Compounds were formulated in 100% DMSO diluted 10-fold in distilled water. Mice were treated on four consecutive days (d3 to d6 post-infection) with the Origanum onites oil, as well as carvacrol and thymol, at 100 mg/kg by the i.p. route. One group served as untreated controls, and two other groups were treated with the standard drugs pentamidine (5 mg/kg for 4 days) and melarsoprol (2 mg/kg for 4 days), respectively. The levels of parasitemia of the mice were checked by microscopic examination of tail blood on Day 7 and thereafter twice a week until Day 30 post infection. Mice were considered cured when there was no parasitaemia relapse detected in the tail blood over the 30 day observation period. The day of relapse and surviving days were recorded.

Row | Structure (SMILES) | Cured/Infected
11 | N=C(N)c1ccc(OCCCCCOc2ccc(C(=N)N)cc2)cc1 [Pentamidine, reference compound] | 4/4

Same assay, conditions: 5.0 mg/kg × 4 days i.p., NMRI mice; untreated control 5.25 days

Row | Structure (SMILES) | Mean Survival [days]
12 | N=C(N)c1ccc(OCCCCCOc2ccc(C(=N)N)cc2)cc1 [Pentamidine, reference compound] | >30

Same assay, conditions: 5.0 mg/kg × 4 days i.p., NMRI mice; untreated control 5.25 days; listed as pentamidine

Row | Structure (SMILES) | Mean Survival
13 | N=C(N)c1ccc(OCCCCCOc2ccc(C(=N)N)cc2)cc1 [Pentamidine, reference compound] | over 30 days

Tested on: P. falciparum K1 strain
Experiment: In vitro assay for Plasmodium falciparum ([3H]-hypoxanthine incorporation)
Assay type: cell-based
Settings: K1, read-out: IC50 Plasmodium falciparum
Method: Activity against the erythrocytic stages of P. falciparum was determined using an in vitro modified [^3H]-hypoxanthine incorporation assay, using the chloroquine- and pyrimethamine-resistant K1 strain [68]. Compounds were dissolved in DMSO at 10 mg/mL and further diluted in medium before added to parasite cultures incubated in RPMI 1640 medium without hypoxanthine, supplemented with HEPES (5.94 g/l), NaHCO3 (2.1 g/L), neomycin (100 U/mL), AlbumaxR (5 g/L), and washed human red cells A+ at 2.5% haematocrit (0.3% parasitaemia). Serial drug dilutions of seven 3-fold dilution steps covering a range from 90 to 0.123 μg/mL were prepared. The 96 well plates were incubated in a humidified atmosphere at 37 °C; 4% CO2, 3% O2, 93% N2. After 48 h 50 μL of ^3H-hypoxanthine (=0.5 μCi) was added to each well of the plate. The plates were incubated for a further 24 h under the same conditions. The plates were then harvested with a Betaplate™ cell harvester (Wallac, Zurich, Switzerland), and the red blood cells transferred onto a glass fiber filter then washed with distilled water. The dried filters were inserted into a plastic foil with 10 mL of scintillation fluid, and counted in a Betaplate™ liquid scintillation counter (Wallac, Zurich, Switzerland). […] IC50 values were calculated from the sigmoidal inhibition curves using Microsoft Excel. Chloroquine was used as positive control drug.

Row | Structure (SMILES) | IC50 [µg/mL]
14 | CCN(CC)CCCC(C)Nc1ccnc2cc(Cl)ccc12 (stereo not shown) [chloroquine, reference compound] | 0.056 (≈ 0.175 µM)

Same assay, conditions: K1 strain (chloroquine- and pyrimethamine-resistant), erythrocytic stages, means of two determinations ± deviation, read-out: IC50 Plasmodium falciparum

Row | Structure (SMILES) | IC50 [µg/mL]
15 | Cc1ccc(C(C)C)cc1 [p-Cymene] | > 20
16 | CC1=CC(=O)C(C(C)C)=CC1=O [Thymoquinone] | 2.6 ± 0.16 (≈ 15.8 µM)
17 | CC1=CCC(O)(C(C)C)CC1 (stereo not shown) [Terpinen-4-ol] | > 20
18 | CC1=CCC(C(C)C)=CC1 [γ-Terpinene] | > 20

Tested on: T. brucei bloodstream forms
Experiment: not given
Design: method as in PMID 10865458
Settings: cited from earlier work

Row | Structure (SMILES) | ED50 T. brucei bloodstream forms [µg/mL] | selectivity to the parasite than to the human cell line [fold]
19 | CC1=CCC(O)(C(C)C)CC1 (stereo not shown) [Terpinen-4-ol] | 0.02 (≈ 0.13 µM) | 1000

Tested on: Trypanosoma brucei rhodesiense STIB 900
Experiment: In vitro assay for Trypanosoma brucei rhodesiense (resazurin)
Assay type: cell-based
Settings: Trypanosoma brucei, 72 h, STIB 900 blood stream forms, 72 h; means of two independent determinations ± deviation from the mean; read-out: IC50 Trypanosoma brucei rhodesiense
Method: Trypanosoma brucei rhodesiense STIB 900 strain, isolated in 1982 from a human patient in Tanzania and, after several mouse passages, cloned and adapted to axenic culture conditions, was used in this assay. Minimum essential medium (50 μL) supplemented with 25 mM HEPES, 1 g/L additional glucose, 1% MEM non-essential amino acids (100×), 0.2 mM 2-mercaptoethanol, 1 mM Na-pyruvate, and 15% heat inactivated horse serum was added to each well of a 96 well microtiter plate. Serial drug dilutions of seven 3-fold dilution steps covering a range from 90 to 0.123 μg/mL were prepared, and then 4 × 10^4 blood stream forms of T. b. rhodesiense STIB 900 in 50 μL were added to each well and the plate was incubated at 37 °C under a 5% CO2 atmosphere for 72 h. Resazurin solution (resazurin, 12.5 mg in 100 mL double-distilled water) (10 μL) was then added to each well and incubated for a further 2–4 h. At the end of the assay, the plates were read with a Spectramax Gemini XS microplate fluorometer (Molecular Devices Cooperation, Sunnyvale, CA, USA) using an excitation wavelength of 536 nm and an emission wavelength of 588 nm. Data were analyzed using the microplate reader software Softmax Pro (Molecular Devices Cooperation, Sunnyvale, CA, USA). Melarsoprol was used as standard drug.

Row | Structure (SMILES) | IC50 [µg/mL]
20 | Cc1ccc(C(C)C)cc1 [p-Cymene] | 45 ± 27 (≈ 335 µM)
21 | CC1=CC(=O)C(C(C)C)=CC1=O [Thymoquinone] | 0.11 ± 0.02 (≈ 0.67 µM)
22 | CC1=CCC(O)(C(C)C)CC1 (stereo not shown) [Terpinen-4-ol] | 0.66 ± 0.4 (≈ 4.28 µM)

Same assay, conditions: Trypanosoma brucei, 72 h, read-out: IC50 Trypanosoma brucei rhodesiense

Row | Structure (SMILES) | IC50 [µg/mL]
23 | Nc1nc(N)nc(Nc2ccc([As]3SCC(CO)S3)cc2)n1 (stereo not shown) [melarsoprol, reference compound] | 0.003

Same assay, conditions: Trypanosoma brucei; STIB 900 blood stream forms, 72 h; means of two independent determinations ± deviation from the mean; read-out: IC50 Trypanosoma brucei rhodesiense

Row | Structure (SMILES) | IC50 [µg/mL]
24 | CC1=CCC(C(C)C)=CC1 [γ-Terpinene] | 32.9 ± 26 (≈ 241 µM)

Tested on: L6 cells
Experiment: In vitro assay for cytotoxicity on mammalian cells (resazurin)
Assay type: cell-based, rat
Settings: rat
Method: (§1) Assays were performed in 96 well microtiter plates (4 × 10^4 L6 cells/well), each well containing 100 μL of RPMI 1640 medium supplemented with 1% L-glutamine (200 mM) and 10% FBS. L6 cells are a primary cell line derived from rat skeletal myoblasts. Serial drug dilutions of seven 3-fold dilution steps covering a range from 90 to 0.123 μg/mL were prepared. After 72 h of incubation, the plates were inspected under an inverted microscope to assure growth of the controls and sterile conditions. Resazurin solution (10 μL) (12.5 mg resazurin in 100 mL double-distilled water) was then added to each well and the plates incubated for another 2 h. The plates were then read with a Spectramax Gemini XS microplate fluorometer (Molecular Devices Cooperation, Sunnyvale, CA, USA) using an excitation wavelength of 536 nm and an emission wavelength of 588 nm. Data were analyzed using the microplate reader software Softmax Pro (Molecular Devices Cooperation, Sunnyvale, CA, USA). From the sigmoidal inhibition curves, the IC50 values were calculated. Podophyllotoxin was the positive control.

Row | Structure (SMILES) | fold higher cytotoxicity on L6 cells than thymol [fold]
25 | CC1=CC(=O)C(C(C)C)=CC1=O [Thymoquinone] | 2.5

Tested on: not listed separately
Experiment: as above
Assay type: cell-based, rat
Settings: L6 cells (rat skeletal myoblasts); rat skeletal myoblasts, 72 h; means of two determinations ± deviation; read-out: IC50 Cytotoxicity L6 cells
Method: as §1

Row | Structure (SMILES) | IC50 at 72 h [µg/mL]
26 | Cc1ccc(C(C)C)cc1 [p-Cymene] | > 90
27 | CC1=CC(=O)C(C(C)C)=CC1=O [Thymoquinone] | 20.5 ± 8.1 (≈ 125 µM)
28 | CC1=CCC(O)(C(C)C)CC1 (stereo not shown) [Terpinen-4-ol] | 43.3 ± 16.5 (≈ 281 µM)

Same assay, conditions: rat skeletal myoblasts, 72 h; means of two determinations ± deviation; read-out: IC50 Cytotoxicity L6 cells

Row | Structure (SMILES) | IC50 at 72 h [µg/mL] | IC50 [µg/mL]
29 | COc1cc([C@@H]2c3cc4c(cc3[C@H](O)[C@H]3COC(=O)[C@H]23)OCO4)cc(OC)c1OC [phodophyllotoxin, reference compound] | 0.004 (≈ 0.00965 µM) | 
30 | CC1=CCC(C(C)C)=CC1 [γ-Terpinene] |  | > 90

Source: PMC6930659, “Antiprotozoal Activity of Turkish Origanum onites Essential Oil and Its Components” (Molecules, 2019)
